Test results published in publication PMC9146423, “Discovery of Nitro-azolo[1,5-a]pyrimidines with Anti-Inflammatory and Protective Activity against LPS-Induced Acute Lung Injury” (Pharmaceuticals, 2022).
Structures can show the parent of a compound that is named as a salt.

Experiments:
[1] = system: LPS-stimulated peritoneal macrophages of C57bl/6j mice; assay: Cell viability of LPS-stimulated macrophages, MTT test; type: cell-based; conditions: 100 μM
Procedure: (§1) Peritoneal macrophages (PM) were isolated from the peritoneal exudate of 30 male C57bl/6j mice. To accumulate PM, 1 mL of 3% peptone solution was injected intraperitoneally. After 3 days, the mice were euthanized by cervical dislocation. Cells of peritoneal exudate were obtained by aseptic washing of the abdominal cavity with 5 mL of sterile Hanks’s solution (+4–6 °C) without calcium and magnesium ions. The total number and viability of cells were assessed in a Goryaev counting chamber (Russia) with a 0.4% trypan blue staining (Sigma-Aldrich, St. Louis, MO, USA). The cell concentration was adjusted to 1.0 × 10^6 cells/mL in DMEM (Gibco) supplemented with 2 mM L-glutamine (Gibco, Waltham, MA, USA), 10% heat-inactivated fetal bovine serum (BioClot, Bavaria, Germany), 100 U/mL penicillin, and […] streptomycin (Gibco) and plated 200 μL/well in 96-well transparent plates (SPL Life Sciences Co., Ltd., Pocheon-si, Korea). After 2 h at 37 °C in a humidified atmosphere with 5% CO2, the wells were washed to remove non-adherent cells. After 24 h of incubation, 20 μL of the supernatants were substituted with 20 μL of solutions of test compounds, followed by E. coli O127:B8 LPS (100 ng/mL final concentration) after 30 min. The experiments were run in 3 independent replicates.
The activity of lactate dehydrogenase (LDH) in a cell culture medium served as a marker of membrane permeability and cell death. Aliquotes of supernatants were taken after 24 h of inoculation with test compounds, mixed with 250 μL of […] NADH solution in 54 mM phosphate-buffered saline (pH 7.5). Then, 25 μL of a 6.48 mM pyruvate solution was added to the mixture. The optical density was followed at a wavelength of 340 nm for 20 min. The MTT-test was performed 24 h after incubations of cells with tested compounds. Briefly, 20 μL of MTT solution was added to each well, incubated at 37 °C in a humidified atmosphere containing 5% CO2 for 4 h. The culture medium was removed, the cells were lysed, and formazan crystals were dissolved in 150 μL DMSO. The plates were shaken at room temperature for 10 min, and the optical density was measured in a microplate reader Infinite M200 PRO (Tecan, Grödig, Austria) at a wavelength of 565 nm.

[2] = system: LPS-stimulated peritoneal macrophages of C57bl/6j mice; assay: Inhibition of LPS-induced NO synthesis (nitrite accumulation, Griess reagent) in peritoneal macrophages; type: cell-based, mouse; conditions: 100 μM; for inhibition at 100 µM: Mus musculus, Peritoneal macrophage, 22 h, read-out: Inhibition of NO Synthesis vs. LPS Control; for inhibition at 100 µM / Inhibition of NO Synthesis vs. LPS Control: m ± SD
Procedure: as §1
The accumulation of the nitrite anion (a stable end product of NO decomposition produced by iNOS) in supernatants was determined using a standard Griess reagent. Briefly, 50 μL of supernatants were collected 22 h after incubation of PM, and the test and control compounds were mixed with 50 μL of 1% […] in 2.5% H3PO4 and 50 μL of 0.1% N-(1-naphthyl) ethylenediamine in 2.5% H3PO4. After incubation at 23 °C for 10 min in an orbital shaker, the optical density was determined at a wavelength of 550 nm with a microplate reader Infinite M200 PRO (Tecan, Grödig, Austria).

## Cc1nc2nnnn2c(NC(C)C)c1[N+](=O)[O-] [Compound 9a, N-Isopropyl-5-methyl-6-nitrotetrazolo[1,5-a]pyrimidin-7-amine]
[1]; male, C57bl/6j, mouse, 24 h
  Cell Viability vs. LPS Control, MTT Test: 73.47 ± 12.07%
[2]
  inhibition at 100 µM: 47.7 ± 6.98%

## Cc1nc2nnnn2c(NC(C)(C)C)c1[N+](=O)[O-] [Compound 9b, N-Tert-Butyl-5-methyl-6-nitrotetrazolo[1,5-a]pyrimidin-7-amine]
[1]; male, C57bl/6j, mouse, 24 h
  Cell Viability vs. LPS Control, MTT Test: 104.9 ± 5.87%
[2]
  inhibition at 100 µM: 37 ± 3.25%

## Cc1nc2nnnn2c(NCCO)c1[N+](=O)[O-] [Compound 9c, 2-[(5-Methyl-6-nitrotetrazolo[1,5-a]pyrimidin-7-yl)-amino]ethanol]
[1]; male, C57bl/6j, mouse, 24 h
  Cell Viability vs. LPS Control, MTT Test: 109.0 ± 2.00%
[2]
  inhibition at 100 µM: 54.2 ± 11.5%

## Cc1nc2nnnn2c(NCCCO)c1[N+](=O)[O-] [Compound 9d, 3-[(5-Methyl-6-nitrotetrazolo[1,5-a]pyrimidin-7-yl)-amino]propanol]
[1]; male, C57bl/6j, mouse, 24 h
  Cell Viability vs. LPS Control, MTT Test: 116.6 ± 8.97%
[2]
  inhibition at 100 µM: 40.3 ± 5.14%

## Cc1nc2nnnn2c(NCC(O)CO)c1[N+](=O)[O-] (stereo not shown) [Compound 9e, 3-[(5-Methyl-6-nitrotetrazolo[1,5-a]pyrimidin-7-yl)-amino]propane-1,2-diol]
[1]; male, C57bl/6j, mouse, 24 h
  Cell Viability vs. LPS Control, MTT Test: 94.98 ± 12.48%
[2]
  inhibition at 100 µM: 21.5 ± 2.74%

## Cc1nc2nnnn2c(NCCc2ccc(Cl)cc2)c1[N+](=O)[O-] [Compound 9f, N-[2-(4-Chlorophenyl)ethyl]-5-methyl-6-nitrotetrazolo-[1,5-a]pyrimidin-7-amine]
[1]; male, C57bl/6j, mouse, 24 h
  Cell Viability vs. LPS Control, MTT Test: 102.67 ± 6.35%
[2]
  inhibition at 100 µM: 35.8 ± 4.45%

## C#CCSc1nc2ncc([N+](=O)[O-])c(NCCc3ccc(Cl)cc3)n2n1 [Compound 10f, N-(4-Chlorophenethyl)-6-nitro-2-(prop-2-yn-1-yl-sulfanyl)[1,2,4]triazolo[1,5-a]pyrimidin-7-amine]
[1]; male, C57bl/6j, mouse, 24 h
  Cell Viability vs. LPS Control, MTT Test: 38.37 ± 6.89 %
[2]
  inhibition at 100 µM: 50.6 ± 1.27%

## C#CCSc1nc2ncc([N+](=O)[O-])c(NCCc3ccc(O)cc3)n2n1 [Compound 10g, 4-{2-[(6-Nitro-2-(prop-2-yn-1-ylsulfanyl)[1,2,4]triazolo[1,5-a]pyrimidin-7-yl)amino]ethyl}phenol]
[1]; male, C57bl/6j, mouse, 24 h
  Cell Viability vs. LPS Control, MTT Test: 30.9 ± 7.7 %
[2]
  inhibition at 100 µM: 28.5 ± 3.21%

## Cc1[nH]c2nc(-c3ccc([N+](=O)[O-])o3)nn2c(=O)c1[N+](=O)[O-] [Compound 13, 2-(5-Nitrofur-2-yl)-5-methyl-6-nitro-1,2,4-triazolo[1,5-a]pyrimidin-7-one aminoguanidinium salt]
[1]; m ± SD
  Cell Viability vs. LPS Control, MTT Test: 96.97 ± 7.18%
[2]
  Inhibition of nitric oxide synthesis (in words): comparable to that of the tetrazolopyrimidine series
  Inhibition of NO Synthesis vs. LPS Control: 58.97 ± 7.07 %

## Cc1[nH]c2nc(-c3ccc([N+](=O)[O-])o3)nn2c(=O)c1[N+](=O)[O-] [Compound 14, 2-(5-Nitrofur-2-yl)-5-methyl-6-nitro-1,2,4-triazolo[1,5-a]pyrimidin-7-one guanidinium salt]
[1]; m ± SD
  Cell Viability vs. LPS Control, MTT Test: 111.95 ± 8.67%
[2]
  Inhibition of nitric oxide synthesis (in words): did not demonstrate inhibition of nitric oxide synthesis
  Inhibition of NO Synthesis vs. LPS Control: 16.09 ± 5.78%
